Publication PMC9963659, “Novel 2-Thiouracil-5-Sulfonamide Derivatives: Design, Synthesis, Molecular Docking, and Biological Evaluation as Antioxidants with 15-LOX Inhibition” (Molecules, 2023)
Like-named read-outs stand apart in the source and are kept apart here.

Tests used:
[1] = Hydrogen peroxide scavenging assay; assay type: biochemical; settings: mean ± SEM of three experiments
Method: H2O2 assay is used to estimate the scavenging power of the target compounds (4–9) to H2O2.
The hydrogen peroxide (H2O2) scavenging activity of all novel synthesized compounds 3–9 was measured as previously reported (see Supplementary Materials).
1-Biological Evaluation Details: a-In-vitro Assays for biological antioxidant Activity […]
Linear regression analysis was performed to calculate drug concentration showing 50% free radical inhibition activity (IC50). All tests were performed in triplicates.
-Scavenging of hydrogen peroxide
In this method, the decay or loss of hydrogen peroxide can be quantified spectrophotometrically at 230 nm when a scavenger is incubated with it. The procedure was applied with a few changes. In phosphate buffered saline, hydrogen […]
peroxide (20 mM) solution was prepared in phosphate buffered saline (PBS, pH 7.4). In order to make different concentrations of 1 ml of the tested substances (3–9) or standards in methanol, 2 ml of hydrogen peroxide solution in PBS was added. After 10 minutes, the absorbance of H2O2 was measured at 230 nm in comparison to an ascorbic acid (AA) reference solution that contained phosphate buffer but no H2O2.
% of H2O2 scavenging = [(A control -A sample) / A control] x100. […]

[2] = Lipid peroxidation assay (FeCl2/H2O2-stimulated linoleic acid peroxidation); assay type: biochemical; settings: mean ± SEM of three experiments
[3] = biological target: T1, Soybean 15-LOX enzyme (Glycine max, UniProt P08170); experiment: In vitro 15-lipoxygenase inhibition (Cayman Lipoxygenase Inhibitor Screening Assay Kit); assay type: biochemical; settings: for IC50: Soybean 15-LOX, arachidonic acid substrate, mean ± SEM of three experiments; for 15-LOX inhibitory activity relative to quercetin: fold that of quercetin
T1 construct: purchased Cayman Chemical 760700
T1 sequence (P08170 1-839): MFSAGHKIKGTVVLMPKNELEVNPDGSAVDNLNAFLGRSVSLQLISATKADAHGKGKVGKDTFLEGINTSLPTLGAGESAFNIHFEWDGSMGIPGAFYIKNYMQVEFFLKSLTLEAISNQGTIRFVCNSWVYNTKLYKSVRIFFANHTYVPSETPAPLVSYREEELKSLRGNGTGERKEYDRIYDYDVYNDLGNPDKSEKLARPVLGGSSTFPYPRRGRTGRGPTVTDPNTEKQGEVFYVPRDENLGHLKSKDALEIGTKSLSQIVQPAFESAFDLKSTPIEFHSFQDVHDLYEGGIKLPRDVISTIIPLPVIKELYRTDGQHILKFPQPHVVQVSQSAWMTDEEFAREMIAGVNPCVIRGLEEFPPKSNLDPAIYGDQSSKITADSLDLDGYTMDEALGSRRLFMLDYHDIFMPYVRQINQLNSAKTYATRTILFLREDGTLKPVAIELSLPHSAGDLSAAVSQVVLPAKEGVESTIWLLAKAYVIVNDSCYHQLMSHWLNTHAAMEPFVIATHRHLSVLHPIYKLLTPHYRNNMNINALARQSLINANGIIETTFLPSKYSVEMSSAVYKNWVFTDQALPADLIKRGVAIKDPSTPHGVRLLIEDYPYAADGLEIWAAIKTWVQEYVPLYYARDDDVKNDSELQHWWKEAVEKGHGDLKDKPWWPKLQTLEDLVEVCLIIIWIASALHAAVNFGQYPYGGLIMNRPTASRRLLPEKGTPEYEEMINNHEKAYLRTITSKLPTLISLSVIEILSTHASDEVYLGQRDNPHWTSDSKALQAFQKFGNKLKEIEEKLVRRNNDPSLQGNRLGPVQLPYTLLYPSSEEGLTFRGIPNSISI
Method: 90 µL of 15-LOX was pipetted into a 96-well plate quickly. The test chemical was then dissolved in DMSO in 10 µL portions at concentrations of 2.5 µM, 5.0 µM, and 10 µM and added to each well. Arachidonic acid, a 110 µL substrate, was added to start the reaction, and the plate was shaken for at least five minutes. In order to interrupt enzyme catalysis and advance the reaction, 100 µL of chromogen was added to each well and made in accordance with the manufacturer’s instructions. In blank wells, 100 µL of assay buffer (0.1 M Tris-HCl, pH 7.4) was utilized. […] The solution’s absorbance was determined at λ 490–500 nm. The percentage inhibition was calculated according to the following equation:% inhibition = [(IA − Ainhibitor sample)/IA] × 100(1) where (IA) is the 100% initial activity and (Ainhibitor sample) is the absorbance of the test sample. A dose-response curve was plotted between % inhibition and the drug concentration. The non-linear dose-response curve was used for calculating drug concentration showing 50% enzyme inhibition.

[4] = DPPH radical scavenging assay; assay type: biochemical; settings: mean ± SEM of three experiments
Method: The antioxidant potential of all target compounds (3–9) was determined using DPPH radical scavenging assay in comparison with ascorbic acid (AA) as the control treatment.
The mechanism of antioxidants as DPPH radical scavengers is based on their hydrogen-donation ability as hydrogen atoms or an electron transfer from the compound to the DPPH to form DPPH-H. The results of DPPH reduction are presented in Table 2, Figure 7.
The DPPH scavenging activity of all novel synthesized compounds (3–9) was measured as previously described (see Supplementary Materials).
1-Biological Evaluation Details: a-In-vitro Assays for biological antioxidant Activity
- DPPH scavenging method.
A 96-well plate was filled with 100 µL of the investigated compounds at various concentrations (12.5, 25, 50, 100, and 200 µg/mL ). The plate was then incubated at room temperature for 30 min while being protected from light by adding 100 µL of 100µM DPPH methanolic solution to each well. At a λ517 nm. the solution's absorbance was measured.
The positive control was ascorbic acid, and the negative control was DMSO. According to the following equation, the percentage of DPPH scavenging activity was determined:
% of DPPH scavenging = [(A control -A sample) / A control] x100. where A control is the absorbance of the control reaction (with all reagents except the test compound), and A sample is the absorbance of the test sample. Linear regression analysis was performed to calculate drug concentration showing 50% free radical inhibition activity (IC50). All tests were performed in triplicates. […]

[5] = parameters: method as in PMID 23248677; settings: cited from earlier work
[6] = system: human 15-LOX; settings: cited from earlier work
[7] = system: 15-LOX-1; parameters: method as in PMID 26560362; settings: human; cited from earlier work
[8] = system: 15-LOX-1; parameters: method as in PMID 26560362; settings: cited from earlier work
[9] = system: 15-LOX-1; parameters: method as in PMID 26560362; settings: rabbit enzyme; cited from earlier work

Structure (SMILES)	H2O2 IC50 [1] [µg/mL]	melting point [°C]	Lipid Peroxidation IC50 [2] [µg/mL]	IC50 [3] [nM]	DPPH IC50 [4] [µg/mL]	other results
CC1=C(C(=O)OC(C)C)C(c2ccco2)NC(=S)N1 (centres unmarked) [XII]						antioxidant activity IC50 [5]: 600 µg/mL
COc1ccc(-c2cc3cc(F)c(F)cc3[nH]2)cc1NS(=O)(=O)c1cccs1 [XIV]						IC50 ([6]; read-out: 15-LOX IC50): 7 nM
O=c1c2cnc(N3CCOCC3)nc2sn1CCN1CCCCC1 [XIX]						IC50 [7]: 120 nM
c1csc(C2CSC(c3nc4ccccc4[nH]3)=N2)c1 (centres unmarked) [XVIII]						IC50 [8]: 96 nM
COc1ccc(-c2cc3cc(F)c(F)cc3[nH]2)cc1NC(=S)Nc1cccc(C(=O)O)c1 [XVII]						IC50 [9]: 2 nM
O=S(=O)(Nc1cccc(-c2nc3cccnc3[nH]2)c1)c1cccs1 [XVI]						IC50 ([6]; read-out: 15-LOX IC50): 10000 nM
CCCCCc1ccc(S(=O)(=O)NCCc2nc(-c3ccccc3)[nH]c2-c2ccc(OC)cc2)cc1 [XV]						IC50 ([6]; AA, read-out: 15-LOX IC50 (AA)): 50 nM; IC50 ([6]; LA, read-out: 15-LOX IC50 (LA)): 17 nM
O=C(O)c1cc(O)c(O)c(O)c1 [gallic acid]						antioxidant activity IC50 [5]: 0.8 µg/mL

Continued, in another order:

H2O2 IC50 [1] [µg/mL]	melting point [°C]	Lipid Peroxidation IC50 [2] [µg/mL]	IC50 [3] [nM]	DPPH IC50 [4] [µg/mL]	Structure (SMILES)	other results
28.8 ± 1.05	282 to 284	38.0 ± 1.42	7500 ± 40	21.0 ± 0.5	Cc1cccc(-c2cc(-c3cccc(NS(=O)(=O)c4c[nH]c(=S)[nH]c4=O)c3)[nH]c(=O)c2C#N)c1 [Compound 6d, N-{3-[5-cyano-4-(3-methylphenyl)-6-oxo-1,6-dihydropyridin-2-yl]phenyl}-4-oxo-2-thioxo-1,2,3,4-tetrahydropyrimidine-5-sulfonamide]	
26.0 ± 1.28	251 to 253	37.6 ± 1.2	6950 ± 70	25.5 ± 1.16	N#Cc1c(-c2cccc([N+](=O)[O-])c2)cc(-c2cccc(NS(=O)(=O)c3c[nH]c(=S)[nH]c3=O)c2)nc1N [Compound 7a, N-{3-[6-amino-5-cyano-4-(3-nitrophenyl)pyridine-2-yl]phenyl}-4-oxo-2-thioxo-1,2,3,4-tetrahydropyrimidine-5-sulfonamides]	
25.0 ± 1.35	257 to 259	37.3 ± 1.3	6700 ± 10	19.50 ± 1.06	N#Cc1c(-c2cccc(Cl)c2)cc(-c2cccc(NS(=O)(=O)c3c[nH]c(=S)[nH]c3=O)c2)nc1N [Compound 7b, N-{3-[6-amino-5-cyano-4-(3-chlorophenyl)pyridine-2-yl]phenyl}-4-oxo-2-thioxo-1,2,3,4-tetrahydropyrimidine-5-sulfonamides]	
24.0 ± 1.40	268 to 270	36.9 ± 1.72	6910 ± 20	17.7 ± 1.4	N#Cc1c(-c2cccc(F)c2)cc(-c2cccc(NS(=O)(=O)c3c[nH]c(=S)[nH]c3=O)c2)nc1N [Compound 7c, N-{3-[6-amino-5-cyano-4-(3-fluorophenyl)pyridine-2-yl]phenyl}-4-oxo-2-thioxo-1,2,3,4-tetrahydropyrimidine-5-sulfonamides]	
23.9 ± 1.34	264 to 266	36.4 ± 1.33	6600 ± 50	17.0 ± 1.63	Cc1cccc(-c2cc(-c3cccc(NS(=O)(=O)c4c[nH]c(=S)[nH]c4=O)c3)nc(N)c2C#N)c1 [Compound 7d, N-{3-[6-amino-5-cyano-4-(3-methylphenyl)pyridine-2-yl]phenyl}-4-oxo-2-thioxo-1,2,3,4-tetrahydropyrimidine-5-sulfonamides]	
20.0 ± 1.40	316 to 318	22.0 ± 1.40	2900 ± 80	15.0 ± 1.25	O=c1[nH]c(=S)[nH]cc1S(=O)(=O)Nc1cccc(-c2csc(NN=Cc3cccc([N+](=O)[O-])c3)n2)c1 [Compound 9a, N-(3-{2-[(2E)-2(3-nitrobenzylidene)hydrazine]-1,3-thiazol-4-yl}phenyl)-4-oxo-thioxo-1,2,3,4-tetrahydropyrimidine-5-sulfonamides]	
18.0 ± 0.72	320 to 322	21.0 ± 1.45	1800 ± 60	11.9 ± 1.40	O=c1[nH]c(=S)[nH]cc1S(=O)(=O)Nc1cccc(-c2csc(NN=Cc3cccc(Cl)c3)n2)c1 [Compound 9b, N-(3-{2-[(2E)-2(3-chlorobenzylidene)hydrazine]-1,3-thiazol-4-yl}phenyl)-4-oxo-thioxo-1,2,3,4-tetrahydropyrimidine-5-sulfonamides]	15-LOX inhibitory activity relative to quercetin [3]: 2.0 fold
16.0 ± 1.20	317 to 319	20.5 ± 1.48	1950 ± 60	10.0 ± 0.83	O=c1[nH]c(=S)[nH]cc1S(=O)(=O)Nc1cccc(-c2csc(NN=Cc3cccc(F)c3)n2)c1 [Compound 9c, N-(3-{2-[(2E)-2(3-fluorobenzylidene)hydrazine]-1,3-thiazol-4-yl}phenyl)-4-oxo-thioxo-1,2,3,4-tetrahydropyrimidine-5-sulfonamides]	15-LOX inhibitory activity relative to quercetin [3]: 1.84 fold
15.0 ± 0.89	326 to 328	20.0 ± 1.56	2500 ± 30	7.55 ± 1.70	Cc1cccc(C=NNc2nc(-c3cccc(NS(=O)(=O)c4c[nH]c(=S)[nH]c4=O)c3)cs2)c1 [Compound 9d, N-(3-{2-[(2E)-2(3-methylbenzylidene)hydrazine]-1,3-thiazol-4-yl}phenyl)-4-oxo-thioxo-1,2,3,4-tetrahydropyrimidine-5-sulfonamides]	
